What was measured:
[1] = set-up: species or system male CD-1 mice; conditions: mouse, in vivo, iv
Procedure: Following anesthetization, the jugular vein and right carotid artery were exposed. Mice were given a jugular vein injection of 0.2 ml BSA-LR containing 3 × 10^5 cpm-1×10^6 cpm of an ^125I/^14C-labeled IRA and 5 × 10^5 cpm of ^99mTc-Alb. Blood samples were collected from the carotid artery at various time points from 1 to 60 min after iv injection (see Figure 1). Mice were then decapitated, and their brains were removed and weighed. After clotting, the arterial blood was centrifuged at 3200 ×g for 10 min. Levels of radioactivity in serum (50 μl) and brain were measured in a gamma counter for ^125I and ^99mTc for 3 min. After ^99mTc decay, ^14C-DA5-CH samples were solubilized with Solvable (Sigma), transferred to scintillation vials containing Ecoscint (National Diagnostics) and ^14C was measured in a beta counter. Sample injection checks were taken throughout the course of the study to calculate the mean injected cpm/mouse. To determine the rate of ^125I/^14C-IRA clearance from the serum, the results were expressed as the percentage of an injected dose in each ml of serum (%Inj/ml), which was calculated by dividing the cpm in a ml of serum (cpm/ml serum) by the cpm injected into the mouse (cpm/Inj):
(2) %Inj/ml=100×cpm/mlserum/meancpm/Inj
The log(%Inj/ml) was plotted against time to calculate the rate of clearance from the serum. To calculate the half-time clearance in minutes, the inverse slope […] of the curve for each IRA was multiplied by 0.301 (log10[2]). The blood and brain cpm data were used for the measurement of brain influx and initial volume of distribution in brain as described in Section 2.7.

[2] = In vivo stability of 125I/14C-IRAs in blood/serum (acid precipitation); set-up: species or system male CD-1 mice; conditions: mouse, iv
Procedure: We measured the stability of the radiolabeled IRAs in brain and blood. Following anesthetization, arterial blood and whole brain were taken at two time points (10 or 60 min) after iv injection of 3 × 10^5 cpm-1×10^6 cpm of ^125I/^14C-IRA in 0.2 ml of BSA/LR. The blood samples were allowed to clot, centrifuged at 3200 ×g for 10 min, and 50 μl of the separated serum was added to 250 μl of BSA-LR. Samples were combined with equal volume 30% TCA (300 μl), mixed, and then centrifuged for 10 min at 5400 ×g. Brains were homogenized in 800 μl of BSA-LR with a bead beater for 30 sec at 4800 rpm twice. Following centrifugation at 5400 ×g for 15 min, a portion of the resulting supernatant was added to an equal volume of 30% TCA, mixed, and then centrifuged at 5400 ×g for 10 min. The radioactivity in the resulting supernatant and pellet (Sup and Pel fractions) for serum and brain was calculated separately, and the percent of radioactivity in the precipitate was calculated using the following equation:(1) %AcidPrecip=100×Pel/Sup+Pel
To correct for degradation that might have occurred during the processing, ^125I/^14C-IRA was added to non-radioactive arterial whole blood or to whole brain and processed as above. The biological samples were corrected for degradation during processing by dividing their values by those for processing control (Pcon) values and multiplying by 100. This can sometimes result in a value greater than 100%.
Immediately after counting the radioactivity, the blood and brains from the 10 min and 6 h time points were processed as described in Section 2.5 for in vivo stability. For further comparison, data from the 1 h time point were taken from the original pharmacokinetic uptake study. The ^125I-IRA brain % acid precipitation (%AP) was divided by the ^125I-IRA serum %AP at each time point to calculate the %AP B/S ratio. This value was multiplied by the B/S ratio for each ^125I-IRA to correct for degradation over the 10 min, 1 h, or 6 h time periods. Corrected AP B/S ratios were then corrected for vascular space by subtracting the ^99mTc-Alb B/S ratio within each mouse for the 10 min and 6 h time points (AP corrected delta B/S ratio). For the 1 h time point, the average ^99mTc-Alb B/S ratio (10.03 μl/g) at 10 min across all ^125I-IRAs was used for correction. The AP corrected delta B/S ratio for each ^125I-IRA was then multiplied by the %Inj/ml within each mouse to calculate the AP corrected delta %Inj/g.

[3] = human, in vivo; cited from earlier work
[4] = Octanol/buffer partition coefficient (lipid solubility); assay type: physicochemical; conditions: pH 7.5
Procedure: We measured the lipid solubility of the IRAs, using octanol and PB. Briefly, 1 × 10^5 counts per minute (cpm) of each ^125I/^14C-IRA were added to triplicate tubes containing equal volumes PB and octanol (Sigma-Aldrich). This solution was vigorously mixed for 1 min and centrifuged at 5500 ×g for 10 min to separate the two phases. Aliquots of 100 μl were taken in duplicate from each phase, and total radioactivity was counted in a gamma counter (Wizard2, Perkin-Elmer) or beta counter (TriCarb 3110TR, Perkin-Elmer). The ratio of the cpm in the octanol phase to the cpm in the buffer phase equates to the mean partition coefficient (Pcoeff) and indicates lipophilicity. The log value for the coefficient can be either greater than unity, indicative of a lipophilic compound, or less than unity, indicative of a hydrophilic compound.

CC[C@H](C)[C@H](NC(=O)[C@H](CC(C)C)NC(=O)[C@H](Cc1c[nH]c2ccccc12)NC(=O)[C@H](CCC(N)=O)NC(=O)[C@@H](NC(=O)[C@H](Cc1ccccc1)NC(=O)[C@H](C)NC(=O)[C@H](CCCCNC(=O)COCCOCCNC(=O)COCCOCCNC(=O)CC[C@H](NC(=O)CCCCCCCCCCCCCCCCCCC(=O)O)C(=O)O)NC(=O)[C@H](CCC(N)=O)NC(=O)[C@H](C)NC(=O)[C@@H](NC(=O)[C@H](CCCCN)NC(=O)[C@H](CC(=O)O)NC(=O)[C@H](CC(C)C)NC(=O)C(C)(C)NC(=O)[C@@H](NC(=O)[C@H](CO)NC(=O)[C@H](Cc1ccc(O)cc1)NC(=O)[C@H](CC(=O)O)NC(=O)[C@H](CO)NC(=O)[C@@H](NC(=O)[C@H](Cc1ccccc1)NC(=O)[C@@H](NC(=O)CNC(=O)[C@H](CCC(=O)O)NC(=O)C(C)(C)NC(=O)[C@@H](N)Cc1ccc(O)cc1)[C@@H](C)O)[C@@H](C)O)[C@@H](C)CC)[C@@H](C)CC)C(C)C)C(=O)N[C@@H](C)C(=O)NCC(=O)NCC(=O)N1CCC[C@H]1C(=O)N[C@@H](CO)C(=O)N[C@@H](CO)C(=O)NCC(=O)N[C@@H](C)C(=O)N1CCC[C@H]1C(=O)N1CCC[C@H]1C(=O)N1CCC[C@H]1C(=O)N[C@@H](CO)C(N)=O [Tirzepatide]
Half-Time Serum Clearance (t1/2) [1]: 30.62 min
Percentage of labeled IRA intact, Serum, 10 min [2]: 100.5 ± 0.0%
Percentage of labeled IRA intact, Serum, 60 min [2]: 99.65 ± 0.1%
half-lives in human serum [3]: 111 to 124 h
Lipid Solubility Partition Coefficient [4]: 0.1318 ± 0.0126
Log Partition Coefficient (Log P) [4]: -0.884 ± 0.0405

Source: publication PMC11583597, “Brain uptake pharmacokinetics of albiglutide, dulaglutide, tirzepatide, and DA5-CH in the search for new treatments of Alzheimer’s and Parkinson’s diseases” (Tissue Barriers, 2023)
